Experimental findings from publication PMC3433414, “Oral Administration of the Pimelic Diphenylamide HDAC Inhibitor HDACi 4b Is Unsuitable for Chronic Inhibition of HDAC Activity in the CNS In Vivo” (PLoS ONE, 2012) are described below.

Read-outs that look alike come from different tables or passages of the source.

The test system of data set [1] is endogenous Class I HDACs/HDAC6. Nature of the data set: Cellular HDAC assay, Boc_Lys_Ac substrate, Jurkat E6.1 cells. The class given is cell-based. Here is the method:
Briefly, Jurkat E6.1 cells (obtained from the European Collection of Cell Cultures (ECACC)) were plated into 384 well plates at 75,000 cells/well in cellular assay buffer (RPMI without phenol red, 0.1% Fetal Bovine Serum, 10 mM HEPES, 1 mM Sodium Pyruvate). […] Fluorescent counts were read the following morning on the Perkin Elmer EnVision.
Each compound was tested in duplicate in concentration-response format on 3 separate days. […] A full dose response of reference compound was always included alongside the profiling, to ensure that assay parameters remained within acceptable limits.

The nature of the next data set: Plasma stability. The class given is in vitro ADME, mouse. To be noted: fresh mouse plasma, 5 µM; for half-life at 5 µM: pooled mouse plasma, duplicates. Here is the method:
Incubations of test compound (5 µM initial concentration, n = 2) were carried out with pooled mouse plasma or BSA (45 mg/mL in 0.1 M phosphate buffered saline). The incubations were performed at 37°C. Samples (50 µL) were obtained from the incubation at 0, 10, 30, 120, 240, 360 and 1440 min, and added to 150 µL of acetonitrile containing carbamazepine as analytical internal standard to terminate the reaction. Samples were centrifuged and the supernatant fractions analysed by LC-MS/MS.
For half-life determinations, the instrument responses (peak areas) normalized for internal standard response, were referenced to the zero time-point samples (as 100%) in order to determine the percentage of compound remaining. Ln plots of the % remaining, for each compound, were used to determine the half-life for the plasma incubations. Half-life values were calculated from the relationship:-. [drawing 1] Where λ was the slope of the natural logarithmic (Ln) concentration vs time curve.
When quantification was required, calibration standards for parent compound and metabolites were prepared in control plasma and extracted and analysed as described for the study samples. Quantification of parent compound or metabolite was by extrapolation from the calibration line.

A short description of data set [2]: Cerep binding, antagonist radioligand. The following applies: 10 μM. An excerpt:
(§1) In addition to the HDAC profiling performed, we also queried 4b for any apparent potential off-target effects, which could complicate any finding of efficacy or adverse events in vivo due to ‘polypharmacy’. This was accomplished by screening against a ‘diversity panel’ of 72 binding and 29 enzyme assays, comprised of roughly equal numbers of selective central and peripheral therapeutically relevant targets (Cerep Diversity Profile). This panel included representative targets from diverse enzyme families, G protein coupled receptors, steroid nuclear receptors, voltage- and ligand-gated ion channels. While not totally inclusive, it is a useful tool for discovery compounds to assess their viability as proof of concept molecules to specifically query a particular target. 4b was initially screened at 10 µM in duplicate. The full set of results is provided as Table S1. […] This clean in vitro profile was considered acceptable to proceed to ADME and pharmacokinetic studies.

The target of a further data set is T1, 5‐HT transporter (h) (Homo sapiens, UniProt P31645).
T1 construct: purchased Cerep (Diversity Profile)
Nature of the data set: Cerep binding, antagonist radioligand. To be noted: read-out: % inhibition of control specific binding.
Description: as §1

A further data set has as its target T2, A1 (h) (Homo sapiens, UniProt P30542).
T2 construct: purchased Cerep (Diversity Profile)
Nature of the data set: Cerep binding, antagonist radioligand. To be noted: read-out: % inhibition of control specific binding.
Description: as §1

Data set [3] relates to Ca2+ channel (L, verapamil site) (phenylalkylamine). Nature of the data set: Cerep binding, antagonist radioligand. The following applies: 10 μM.
Description: as §1

The test system of a further data set is Cl‐channel (GABA‐gated). Nature of the data set: Cerep binding, antagonist radioligand. To be noted: 10 μM.
Description: as §1

For another data set, the target named is T3, D2S (h) (Homo sapiens, UniProt P14416).
T3 construct: purchased Cerep (Diversity Profile)
Nature of the data set: Cerep binding, antagonist radioligand. To be noted: read-out: % inhibition of control specific binding.
Description: as §1

In the next data set the target is T4, D3 (h) (Homo sapiens, UniProt P35462).
T4 construct: purchased Cerep (Diversity Profile)
Nature of the data set: Cerep binding, antagonist radioligand. To be noted: read-out: % inhibition of control specific binding.
Description: as §1

For the next data set, the target named is T5, D4.4 (h) (Homo sapiens, UniProt P21917).
T5 construct: purchased Cerep (Diversity Profile)
Put plainly: Cerep binding, antagonist radioligand. The following applies: read-out: % inhibition of control specific binding.
Description: as §1

In a further data set the target is T6, H1 (h) (Homo sapiens, UniProt P35367).
T6 construct: purchased Cerep (Diversity Profile)
Nature of the data set: Cerep binding, antagonist radioligand. The following applies: read-out: % inhibition of control specific binding.
Description: as §1

The next data set relates to I2. Put plainly: Cerep binding, antagonist radioligand. To be noted: 10 μM.
Description: as §1

Another data set has as its system KV channel. Put plainly: Cerep binding, antagonist radioligand. To be noted: 10 μM.
Description: as §1

Another data set deals with T7, NK3 (h) (Homo sapiens, UniProt P29371).
T7 construct: purchased Cerep (Diversity Profile)
Put plainly: Cerep binding, antagonist radioligand. To be noted: read-out: % inhibition of control specific binding.
Description: as §1

Data set [4] has as its target T8, choline transporter (CHT1) (h) (Homo sapiens, UniProt Q9GZV3).
T8 construct: purchased Cerep (Diversity Profile)
Put plainly: Cerep binding, antagonist radioligand. To be noted: read-out: % inhibition of control specific binding.
Description: as §1

In the next data set the target is T9, dopamine transporter (h) (Homo sapiens, UniProt Q01959).
T9 construct: purchased Cerep (Diversity Profile)
Put plainly: Cerep binding, antagonist radioligand. The following applies: read-out: % inhibition of control specific binding.
Description: as §1

In data set [5] the target is T10, norepinephrine transporter (h) (Homo sapiens, UniProt P23975).
T10 construct: purchased Cerep (Diversity Profile)
Nature of the data set: Cerep binding, antagonist radioligand. The following applies: read-out: % inhibition of control specific binding.
Description: as §1

The next data set relates to ER (non‐selective) (h). Put plainly: Cerep binding, agonist radioligand. Further details: species or system human. The following applies: 10 μM.
Description: as §1

T6 sequence (P35367 whole entry): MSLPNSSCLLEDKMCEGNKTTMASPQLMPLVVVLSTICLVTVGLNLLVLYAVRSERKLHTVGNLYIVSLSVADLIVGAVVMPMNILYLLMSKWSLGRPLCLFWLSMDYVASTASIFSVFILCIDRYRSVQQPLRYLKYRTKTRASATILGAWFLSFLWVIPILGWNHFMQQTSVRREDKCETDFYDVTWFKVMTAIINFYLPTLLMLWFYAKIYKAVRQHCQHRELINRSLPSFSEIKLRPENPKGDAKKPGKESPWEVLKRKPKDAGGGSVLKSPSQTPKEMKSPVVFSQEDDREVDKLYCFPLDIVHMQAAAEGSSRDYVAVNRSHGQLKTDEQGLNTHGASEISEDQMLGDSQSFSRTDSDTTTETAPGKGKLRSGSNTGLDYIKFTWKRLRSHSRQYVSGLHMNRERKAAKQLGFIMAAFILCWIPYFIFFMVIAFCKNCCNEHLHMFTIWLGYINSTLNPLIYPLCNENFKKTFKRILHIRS
T4 sequence (P35462 whole entry): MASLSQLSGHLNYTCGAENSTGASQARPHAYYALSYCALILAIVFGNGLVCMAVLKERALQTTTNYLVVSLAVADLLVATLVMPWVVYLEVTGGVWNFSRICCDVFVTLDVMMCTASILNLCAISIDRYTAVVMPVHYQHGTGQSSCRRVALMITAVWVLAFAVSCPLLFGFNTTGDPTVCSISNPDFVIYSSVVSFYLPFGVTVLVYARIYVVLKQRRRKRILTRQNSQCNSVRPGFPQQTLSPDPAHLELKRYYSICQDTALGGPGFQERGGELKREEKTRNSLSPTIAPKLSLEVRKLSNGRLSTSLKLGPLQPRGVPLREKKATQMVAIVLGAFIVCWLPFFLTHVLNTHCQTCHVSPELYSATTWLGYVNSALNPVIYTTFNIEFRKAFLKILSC
T10 sequence (P23975 whole entry): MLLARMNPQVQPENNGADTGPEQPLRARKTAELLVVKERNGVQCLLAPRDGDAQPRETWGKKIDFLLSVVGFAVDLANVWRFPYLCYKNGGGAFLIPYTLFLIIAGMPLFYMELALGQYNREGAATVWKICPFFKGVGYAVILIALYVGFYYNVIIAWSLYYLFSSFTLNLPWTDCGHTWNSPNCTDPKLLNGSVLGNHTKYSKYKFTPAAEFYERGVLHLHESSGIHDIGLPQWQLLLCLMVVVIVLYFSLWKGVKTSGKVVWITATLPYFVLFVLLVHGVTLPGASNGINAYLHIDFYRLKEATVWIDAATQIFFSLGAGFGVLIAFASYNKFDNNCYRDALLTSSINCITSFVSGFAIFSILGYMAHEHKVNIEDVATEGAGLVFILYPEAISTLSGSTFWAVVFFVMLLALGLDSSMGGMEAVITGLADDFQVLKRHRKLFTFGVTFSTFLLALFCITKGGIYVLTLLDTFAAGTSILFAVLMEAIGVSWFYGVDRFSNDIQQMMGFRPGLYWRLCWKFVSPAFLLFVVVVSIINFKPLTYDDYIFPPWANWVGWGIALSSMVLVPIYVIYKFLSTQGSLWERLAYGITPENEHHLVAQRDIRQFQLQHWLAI
T8 sequence (Q9GZV3 whole entry): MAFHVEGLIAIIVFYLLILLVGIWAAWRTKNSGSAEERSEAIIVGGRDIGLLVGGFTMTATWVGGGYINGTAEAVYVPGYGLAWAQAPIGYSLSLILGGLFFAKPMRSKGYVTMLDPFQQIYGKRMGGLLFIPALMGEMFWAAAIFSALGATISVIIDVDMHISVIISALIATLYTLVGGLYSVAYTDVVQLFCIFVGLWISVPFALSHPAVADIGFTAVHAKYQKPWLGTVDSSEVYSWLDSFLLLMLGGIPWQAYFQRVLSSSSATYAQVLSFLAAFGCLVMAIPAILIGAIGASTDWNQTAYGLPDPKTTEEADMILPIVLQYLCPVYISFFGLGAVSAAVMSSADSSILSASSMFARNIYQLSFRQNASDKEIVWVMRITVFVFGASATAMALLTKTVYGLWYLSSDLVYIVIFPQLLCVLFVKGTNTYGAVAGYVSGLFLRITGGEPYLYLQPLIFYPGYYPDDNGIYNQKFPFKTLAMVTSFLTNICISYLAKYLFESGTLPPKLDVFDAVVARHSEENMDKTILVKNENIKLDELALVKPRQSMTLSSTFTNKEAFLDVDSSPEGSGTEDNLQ
T2 sequence (P30542 whole entry): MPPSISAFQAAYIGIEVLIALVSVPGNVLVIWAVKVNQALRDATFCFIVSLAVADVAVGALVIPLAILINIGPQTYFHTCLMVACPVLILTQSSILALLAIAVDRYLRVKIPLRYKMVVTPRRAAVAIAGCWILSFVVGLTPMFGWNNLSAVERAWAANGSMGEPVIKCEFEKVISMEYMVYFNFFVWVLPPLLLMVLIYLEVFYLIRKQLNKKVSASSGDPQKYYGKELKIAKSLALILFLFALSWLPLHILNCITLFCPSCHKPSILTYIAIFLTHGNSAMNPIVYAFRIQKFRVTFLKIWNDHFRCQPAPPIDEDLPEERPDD
T9 sequence (Q01959 whole entry): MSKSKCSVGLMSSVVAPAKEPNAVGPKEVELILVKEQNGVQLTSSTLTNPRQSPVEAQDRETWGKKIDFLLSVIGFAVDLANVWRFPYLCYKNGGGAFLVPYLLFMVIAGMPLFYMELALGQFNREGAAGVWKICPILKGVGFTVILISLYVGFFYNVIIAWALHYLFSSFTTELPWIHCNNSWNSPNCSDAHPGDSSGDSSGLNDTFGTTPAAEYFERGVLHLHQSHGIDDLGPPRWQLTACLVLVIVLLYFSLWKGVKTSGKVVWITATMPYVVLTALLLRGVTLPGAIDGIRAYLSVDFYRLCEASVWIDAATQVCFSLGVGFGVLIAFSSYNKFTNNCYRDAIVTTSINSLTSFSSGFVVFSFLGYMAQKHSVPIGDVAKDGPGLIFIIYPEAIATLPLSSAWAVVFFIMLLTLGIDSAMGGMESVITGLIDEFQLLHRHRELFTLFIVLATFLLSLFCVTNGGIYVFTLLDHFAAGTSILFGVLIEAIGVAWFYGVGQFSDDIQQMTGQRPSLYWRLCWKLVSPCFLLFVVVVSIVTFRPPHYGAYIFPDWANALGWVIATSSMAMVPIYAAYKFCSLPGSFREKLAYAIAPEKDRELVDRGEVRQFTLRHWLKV
T3 sequence (P14416 1-414 isoform P14416-2): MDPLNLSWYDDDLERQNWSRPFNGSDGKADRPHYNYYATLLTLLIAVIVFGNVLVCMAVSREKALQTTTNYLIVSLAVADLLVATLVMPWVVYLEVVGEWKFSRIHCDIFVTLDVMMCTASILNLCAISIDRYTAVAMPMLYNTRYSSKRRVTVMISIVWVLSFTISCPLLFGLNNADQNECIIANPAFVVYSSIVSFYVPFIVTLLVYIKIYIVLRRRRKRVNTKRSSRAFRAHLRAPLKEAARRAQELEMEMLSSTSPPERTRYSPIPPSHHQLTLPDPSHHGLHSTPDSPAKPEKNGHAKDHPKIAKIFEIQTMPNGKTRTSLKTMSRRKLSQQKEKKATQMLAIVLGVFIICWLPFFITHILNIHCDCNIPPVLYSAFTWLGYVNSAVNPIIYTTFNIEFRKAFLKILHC
T7 sequence (P29371 whole entry): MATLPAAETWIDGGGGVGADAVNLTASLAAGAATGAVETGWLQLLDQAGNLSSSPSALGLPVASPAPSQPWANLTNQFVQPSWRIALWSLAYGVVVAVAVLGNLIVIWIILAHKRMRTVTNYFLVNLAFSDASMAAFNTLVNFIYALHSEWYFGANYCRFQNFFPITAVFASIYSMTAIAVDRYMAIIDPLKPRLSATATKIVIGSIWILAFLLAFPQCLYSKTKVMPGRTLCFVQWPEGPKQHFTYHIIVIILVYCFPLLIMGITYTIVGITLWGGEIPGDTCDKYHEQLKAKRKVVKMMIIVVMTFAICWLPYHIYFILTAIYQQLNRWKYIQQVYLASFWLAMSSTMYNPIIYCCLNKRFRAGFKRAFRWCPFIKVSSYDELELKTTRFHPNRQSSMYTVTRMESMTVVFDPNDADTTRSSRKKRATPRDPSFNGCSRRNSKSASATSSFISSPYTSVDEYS
T5 sequence (P21917 whole entry): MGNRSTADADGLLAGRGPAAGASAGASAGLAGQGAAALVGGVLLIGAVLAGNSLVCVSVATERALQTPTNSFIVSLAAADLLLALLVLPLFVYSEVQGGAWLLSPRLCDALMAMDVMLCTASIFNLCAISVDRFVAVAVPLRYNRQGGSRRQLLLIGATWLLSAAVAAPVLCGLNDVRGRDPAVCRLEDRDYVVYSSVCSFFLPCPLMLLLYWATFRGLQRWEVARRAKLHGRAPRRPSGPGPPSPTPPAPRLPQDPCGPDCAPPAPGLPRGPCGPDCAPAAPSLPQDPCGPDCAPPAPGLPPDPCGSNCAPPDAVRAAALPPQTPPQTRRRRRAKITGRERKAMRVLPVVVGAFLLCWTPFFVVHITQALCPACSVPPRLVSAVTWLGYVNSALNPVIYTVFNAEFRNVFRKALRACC
T1 sequence (P31645 whole entry): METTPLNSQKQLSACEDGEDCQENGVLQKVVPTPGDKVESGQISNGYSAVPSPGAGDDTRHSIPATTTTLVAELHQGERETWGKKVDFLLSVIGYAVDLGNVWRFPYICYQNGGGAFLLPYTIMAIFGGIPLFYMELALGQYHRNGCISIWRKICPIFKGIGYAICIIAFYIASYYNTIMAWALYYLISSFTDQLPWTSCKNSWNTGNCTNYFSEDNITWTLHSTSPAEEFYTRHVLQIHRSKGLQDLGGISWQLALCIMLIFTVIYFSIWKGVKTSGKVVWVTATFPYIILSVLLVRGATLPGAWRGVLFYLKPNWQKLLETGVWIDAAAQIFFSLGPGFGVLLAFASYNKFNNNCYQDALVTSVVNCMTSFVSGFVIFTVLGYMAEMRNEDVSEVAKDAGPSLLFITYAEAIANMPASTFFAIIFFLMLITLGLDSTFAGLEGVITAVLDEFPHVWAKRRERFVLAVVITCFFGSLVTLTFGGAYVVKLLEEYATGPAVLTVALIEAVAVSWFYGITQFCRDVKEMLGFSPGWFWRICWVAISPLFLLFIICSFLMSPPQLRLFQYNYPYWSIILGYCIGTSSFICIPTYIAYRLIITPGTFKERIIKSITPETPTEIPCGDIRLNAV

For `Nc1ccccc1NC(=O)CCCCCC(=O)Nc1ccccc1` [Compound 4b], the IC50 is 1.8 µM in data set [1] (24 h pre-incubation with cells (maximal), read-out: cellular IC50, Boc_Lys_Ac substrate ('Class I' HDAC inhibition)); 5.3 µM in data set [1] (Jurkat E6.1, standard protocol, total incubation time 5 h, read-out: cellular IC50, Boc_Lys_Ac substrate (Class I inhibition)); 15 µM in data set [1] (dilution prepared 21 h previously in DMSO or aqueous buffer, no pre-incubation with cells, read-out: cellular IC50, Boc_Lys_Ac substrate); 16 µM in [1] (freshly prepared compound dilution, no pre-incubation with cells, read-out: cellular IC50, Boc_Lys_Ac substrate); 16 µM in [1] (no pre-incubation with cells, read-out: cellular IC50, Boc_Lys_Ac substrate). Further, the “time to complete conversion to amide hydrolysis products (M1 and M2)” value in “Plasma stability” is on record as at most 6 h. The half-life at 5 µM in “Plasma stability” is 1.9 h. Besides, the “% inhibition of control specific binding” value is 0% in [2]; 7% in [3]; 0% in the data set on Cl‐channel (GABA‐gated); 5% with I2; 2% with KV channel; 2% in the data set with ER (non‐selective) (h). Also, the inhibition at 10 µM came out at 5% on 5‐HT transporter (h); 7% on A1 (h); 3% at D2S (h); 10% at D3 (h); 13% on D4.4 (h); 10% at H1 (h). The inhibition at 10 µM on NK3 (h) is 0%; in data set [4], 14%; at dopamine transporter (h), 2%; in data set [5] it was 0%.

As for `O=C(CCCCCc1nc2ccccc2[nH]1)Nc1ccccc1` [Compound C1, 6-(1-H-benzo[d]imidazol-2-yl)-N-phenylhexanamide], the “activity in the Class I cellular HDAC (Boc_Lys_Ac) assay” value in [1] (up to 50 µM, 5 h incubation) is given as “no activity”. Also, the half-life at 5 µM in the data set “Plasma stability” is 3.6 h. The “% inhibition of control specific binding” value is 13% in [2]; 19% in data set [3]; 0% in the data set with Cl‐channel (GABA‐gated); 73% with I2; 3% in the data set with KV channel; 4% with ER (non‐selective) (h). Besides, the inhibition at 10 µM on 5‐HT transporter (h) (10 μM) was 5%; on A1 (h) (10 μM), 9%; at D2S (h) (10 μM), 2%; at D3 (h) (10 μM), 11%; on D4.4 (h) (10 μM), 31%; at H1 (h) (10 μM), 45%. Further, the inhibition at 10 µM came out at 4% at NK3 (h) (10 μM), 40% in data set [4] (10 μM), 23% on dopamine transporter (h) (10 μM) and 30% in data set [5] (10 μM).

Broadly, the IC50 is the concentration needed to halve the response being measured. In general, half-life refers to the time in which the quantity being followed falls by half. As usually defined, the inhibition is how much of the control response was suppressed.
